The results in this text go back to patent US20230082929A1, “METHODS OF GENERATING AND USING SENESCENT-INDUCED CELLS FOR TREATMENT OF CANCER AND COMPOSITIONS RELATING THERETO” (The Wistar Institute of Anatomy and Biology, priority 2020, published 2023).

In this assay the test system is SASP factors. The assay is described as follows: Secreted cytokine antibody array, IMR90 cells. The assay is classed as cell-based, human. The following applies: HMGB2 knockdown senescent IMR90 cells. As to the method:
For cytokine-array analysis, cells were washed once and cultured in serum-free medium for 48 hours (Nacarelli et al., 2019). Conditioned medium was filtered (0.2 μm) and then subjected to cytokine-array assay using Human Cytokine Array C1 kit (RayBiotech. Cat. No: AAH-CYT-1-2) following the manufacturer's guidelines. After collection of conditional media, the cell number of each sample was counted. The intensities of array dots were visualized on film after incubation with SuperSignal West Pico PLUS Chemiluminescent Substrate (Thermo Fisher Scientific. Cat. No: 34580). The integrated density was measured using Image J and normalized to the cell number from which the conditioned medium was generated.

`CC[C@@]1(O)C(=O)OCc2c1cc1n(c2=O)Cc2cc3ccccc3nc2-1` [CPT, Camptothecin]: the “secretion of SASP factors (antibody array)” value is given as “restoration of the secretion of SASP factors”.
